Results on 1 compound are retold here after US20150071918A1, “PEPTIDES FOR THE TREATMENT OF CANCER” (H. LEE MOFFITT CANCER CENTER AND RESEARCH INSTITUTE, INC., priority 2012, published 2015).

Assay [1] has as its system CD34+ cells from primary AML samples. The assay is described as follows: Cell death in primary CD34+ AML cells. The format is cell-based, human. The following applies: 24 hours. As to the method: (§1) FIG. 45. Primary CD34+AML cells are sensitive to HM-27 (MTI-101) while their normal counterparts are not. Enriched CD34+ cells from peripheral blood and bone marrow of normal individuals were treated with varying doses of HM-27 for 24 hours and then analyzed for cell death as described in the Materials and Methods.
(§2) FIG. 64. MTI-101 induces cell death in primary CD34 progenitor cells from AML patient. […] CD34-positive cells were enriched using immunomagnetic beads in primary AML samples and normal bone marrow aspirates. Cell death was measured by annexin V positivity and FACS analysis.
(§3) Cells were collected after incubation with HM-27 and analyzed for markers of cell death indicative of either apoptosis, autophagy or necrosis. BM-MNCs were isolated from marrow aspirates of AML patients and normal individuals by Ficoll-Paque centrifugation and further enriched for CD34+ cells using immunomagnetic beads. Cell death was assessed by TO-PRO-3 staining followed by FACS analysis.

The next assay relates to H929 cells. The assay can be described thus: Growth inhibition by MTT, combination index (CalcuSyn), 72 hours. The class given is cell-based, human. The following applies: H929, 72 hours. As to the method: FIGS. 59A-59B. H929 cells were treated with varying concentrations of MTI-101 alone or in combination with either chloroquine (FIG. 59A), or bortezomib (FIG. 59B). Following 72 hours of drug treatment growth inhibition was determined by MTT analysis. Data generated were used to calculate the combination index (CI) using CalcuSyn software developed by Chou and Talalay. MTI-101 is synergistic with bortezomib (a proteosome inhibitor) and chloroquine (an inhibitor of autophagy).

A further assay has as its system H929-60 cell line. The assay is described as follows: Cross-resistance in cell line selected for resistance to HYD1. The class given is cell-based. The following applies: H929-60, selected for resistance to HYD1.
The test system of assay [2] is pPyk2, pAkt and pErk1/2 in U937 or HL-60 cells. The assay can be described thus: Western blot of signaling in AML cells after peptide treatment. The class given is cell-based. The following applies: U937 or HL-60, 50 μM MTI-101, western blot. As to the method: FIG. 44. U937 or HL-60 cells were treated with 50 μM MTI-101 for the indicated times and pPyk2, pAkt and pErk1/2 were detected by western blot analysis.
Consistent with data obtained with the linear peptide, we show CD44 and VLA-4 are pulled down using biotin conjugated HM-27 as bait.
(In western blotting, separated proteins are transferred to a membrane and probed.)

Assay [3] concerns CD138 cells from newly diagnosed or relapsed patients. The assay is described as follows: Cell death in CD138 cells enriched from bone marrow aspirates of myeloma patients, annexin V and FACS, 24 hours. The class given is cell-based, human. The following applies: 10 μM MTI-101, 24 hours. Here is the method:
FIGS. 60A-60D. CD138 cells were enriched from the bone marrow aspirates of consented newly diagnosed or relapsed patients and were treated with 10 μM MTI-101, 10 μM Chloroquine or 10 nM Bortezomib or the combination of both agents. Following 24 hours of drug treatment, dell death was measured by annexin V staining and FACS analysis.

The subject of a further assay is A549 cells. The assay is described as follows: MTT viability, combination index with MEK inhibitor. The class given is cell-based. As to the method: (§4) FIG. 69. MTI-101 plus EGFR inhibitors are synergistic in lung cancer cell lines with EGFR activating mutations, and MTI-101 plus MEK inhibitors are synergistic in cell lines arboring activating RAS or BRAFF mutations. Values indicate average calculated combination index (CI). Additive (CI=1), synergism (CI<1) and, antagonism (CI>1). […] Cell viability was measured by the MTT assay. Data generated were used to calculate a Chou and Talalay Combination Index (CI).

Assay [4] deals with cleaved caspase-3, ATP in NCI-H929 and U266 MM cells. The assay can be described thus: Mechanism of cell death in MM cells (cleaved caspase-3, ATP, ROS). The format is cell-based. Here is the method: FIGS. 56A-56F. […] FIG. 56A: Chemical structure of MTI-101 (also referred to herein as HM-27). FIG. 56B: Direct comparison of HYD1 and MTI-101 in NCI-H929 cells. […] FIG. 56F: NCI-H929 and U266 cells were treated with MTI-101 or tert-butyl hydrogen peroxide as a positive control for 1 hour, stained with CellRox Green for 30 minutes and washed, with FACS analysis to determine ROS production. All experiments were run in triplicate and repeated 3 independent times. Statistical significance using ANOVA, *P≦0.05. Similar to linear peptide HYD1, the cyclized peptide MTI-101 induces caspase independent cell death in myeloma cell lines.

Assay [5] has as its system PC9 and HCC4006 cells (activating EGFR mutations). The assay is described as follows: MTT survival, combination index with EGFR inhibitor, 72 hours. The class given is cell-based. The following applies: PC9 or HCC4006 cells. As to the method:
FIG. 68. MTI-101 and EGFR inhibitors are synergistic in cell lines with activating EGFR mutations. Cell lines with activating EGFR mutations (PC9 and HCC4006) were treated with varying concentrations of erlotinib or MTI-101 (also referred to as HM-27) for 72 hours and survival was assayed by MTT analysis. Generated data were used to calculate combination index (CI).
as §4

The test system of another assay is H929 myeloma cells. The class given is cell-based, human. The following applies: H929 cells. The method, boiled down: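 Cells exposed to a peptide concentration series for 24 h; cell death read by Topro-3 staining and FACS. IC50 from linear regression of dose-response curves, mean of 3 independent experiments.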
Assay [6] relates to normal CD34-positive cells. The assay can be described thus: Cell death in CD34+ cells from normal individuals. The class given is cell-based, human. The following applies: 24 hours. As to the method:
as §1, §2, §3

Usually IC50 stands for the concentration that gives 50% inhibition.

“Also recorded” adds a separate entry of the source. *1 amine or outer side, *2 acyl side, *3 side chain or, on linkers, in order; H or OH if unused. Where a SMILES comes first, the peptide text is derived from it. Bridges are numbered along the chain shown (N, C = ends). [ ]: non-standard residue; d: D form. The star is where a group is joined. dProlinol(O-CH2CO) = O=C(COC[C@H]1CCCN1[*:1])[*:2]; N(2-Aminoethyl)Gly = O=C(CN(CCN[*:3])[*:1])[*:2]; Nle = CCCC[C@H](N)C(=O)O; Ms = CS(=O)(=O)*

Consider `CCCC[C@@H]1NC(=O)CN(S(C)(=O)=O)CCNC(=O)[C@H](CCCCN)NC(=O)[C@H](CC(C)C)NC(=O)[C@H](CCCCN)NC(=O)[C@H](CC(C)C)NC(=O)[C@H](CCCCN)NC(=O)COC[C@H]2CCCN2C(=O)[C@H](Cc2c[nH]c3ccccc23)NC(=O)[C@H](C)NC(=O)[C@H](C(C)C)NC(=O)[C@H](C(C)C)NC1=O` [MTI-101] (Ms-[N(2-Aminoethyl)Gly][Nle]VVAW[dProlinol(O-CH2CO)]KLKLK; lactam 1-C), for which the figures for the “cell death in primary AML CD34+ cells” value in assay [1] and in [1] (listed as HM-27) were “Primary AML specimens are sensitive to MTI-101 induced cell death” and “CD34+ cells from primary AML samples are sensitive to HM-27; also recorded: increased potency in samples from relapsed patients compared to specimens obtained from the newly diagnosed”, respectively. The “combination with bortezomib” value with H929 cells is recorded as “synergistic”. Also, in the assay on H929 cells, the “combination with chloroquine” value is “synergistic”. Further, the “cross-resistance” value with H929-60 cell line was “cross-resistance in the H929-60 cell line”. Further, the “phospho-protein levels in AML cells” value in assay [2] was “increased the levels of pPyk2 and pErk1/2, but not pAKT”; in [2] (listed as HM-27), “induced an early activation of Erk1/2 in AML cells”. In assay [3] (newly diagnosed patients), the “effect of 10 nM Bortezomib on MTI-101 activity” value was “increased the activity of MTI-101 in primary patient specimens obtained from newly diagnosed patients”. The “effect of 10 μM Chloroquine on MTI-101 induced cell death” value in assay [3] (relapsed myeloma patients) is listed as “increased the activity of MTI-101 induced cell death in specimens obtained from relapsed myeloma patients”. For the same compound, the “activity in primary patient specimens” value in [3] (relapsed vs newly diagnosed) was “more active in specimens obtained from relapsed multiple myeloma (MM) patients”. Further, the “combination with MEK inhibitor Selumetinib” value in the assay with A549 cells is recorded as “Synergistic growth”. In addition, the “cleaved caspase-3 activity in MM cells” value in [4] was “does not induce cleaved caspase-3 activity”. Besides, in assay [4], the “total cellular ATP in MM cells” value is “reduces total cellular levels of ATP in NCI-H929 and U266 cells”. Besides, in assay [5], the “combination with EGFR inhibitor Erlotinib” value was “Synergistic growth inhibition”. In addition, in the assay with H929 myeloma cells (read-out: IC50), the half-maximal inhibitory concentration (IC50) was found to be 1200 nM. Further, the “fold more potent than linear HYD1” value in the assay on H929 myeloma cells (reference of the 10- and 15-fold statements not expressly named) is listed as 30 fold. In addition, the “cell death in normal CD34+ cells” value in assay [6] is reported as “devoid of activity in normal CD34-positive cells”; in assay [6] (listed as HM-27) it was “CD34+ cells from normal individuals are not sensitive to HM-27”.
